The NIST ThermoML archive (doi:10.1021/je100581m)

Experiment: xn = mol fraction of the nth substance listed
Conditions: Liquid, Vibrating tube method

C=CC(C)(O)CCC=C(C)C (stereo not given) [3,7-dimethyl-1,6-octadien-3-ol] + CCO
mass density [kg/m3]
Conditions | x2 = 0 | x2 = 0.1129 | x2 = 0.1935 | x2 = 0.3045 | x2 = 0.4023 | x2 = 0.5121 | x2 = 0.6055 | x2 = 0.7008 | x2 = 0.8009 | x2 = 0.9009
283.15 K, 100 kPa | 869.2 | 866.8 | 865.6 | 862.7 | 859.9 | 855.3 | 850.3 | 843.1 | 832.7 | 818.2
283.15 K, 5000 kPa | 872.3 | 869.9 | 868.7 | 866 | 863.1 | 858.5 | 853.5 | 846.5 | 836.3 | 822
283.15 K, 10000 kPa | 875.2 | 872.9 | 871.7 | 869 | 866.1 | 861.6 | 856.8 | 849.7 | 839.6 | 825.5
283.15 K, 15000 kPa | 878.2 | 875.9 | 874.8 | 872.1 | 869.2 | 864.8 | 860.1 | 853 | 843.1 | 829.2
283.15 K, 20000 kPa | 881 | 878.8 | 877.6 | 874.9 | 872.1 | 867.7 | 862.9 | 856.1 | 846.3 | 832.5
298.15 K, 100 kPa | 856.9 | 854.5 | 853.4 | 850.5 | 847.6 | 843 | 838 | 830.9 | 820.6 | 805.9
298.15 K, 5000 kPa | 860.1 | 857.8 | 856.7 | 853.9 | 851 | 846.5 | 841.4 | 834.6 | 824.4 | 809.9
298.15 K, 10000 kPa | 863.5 | 861.1 | 860 | 857.2 | 854.4 | 850 | 845.1 | 838.2 | 828.1 | 813.9
298.15 K, 15000 kPa | 866.6 | 864.3 | 863.2 | 860.5 | 857.7 | 853.2 | 848.4 | 841.6 | 831.7 | 817.7
298.15 K, 20000 kPa | 869.6 | 867.4 | 866.3 | 863.6 | 860.8 | 856.4 | 851.7 | 844.9 | 835.1 | 821.3
313.15 K, 100 kPa | 844.1 | 841.7 | 840.6 | 837.8 | 834.7 | 830.2 | 825.3 | 818 | 807.9 | 793.2
313.15 K, 5000 kPa | 847.8 | 845.4 | 844.4 | 841.6 | 838.6 | 834.1 | 829.3 | 822.3 | 812.1 | 797.7
313.15 K, 10000 kPa | 851.3 | 849 | 847.9 | 845.2 | 842.3 | 837.8 | 833.1 | 826.1 | 816.1 | 801.9
313.15 K, 15000 kPa | 854.8 | 852.5 | 851.4 | 848.7 | 845.8 | 841.4 | 836.7 | 829.8 | 820 | 806
313.15 K, 20000 kPa | 858.1 | 855.8 | 854.8 | 852.1 | 849.2 | 844.9 | 840.2 | 833.4 | 823.7 | 809.8
328.15 K, 100 kPa | 831.3 | 828.9 | 827.8 | 824.9 | 821.8 | 817.3 | 812.3 | 805.2 | 794.9 | 780.2
328.15 K, 5000 kPa | 835.2 | 832.9 | 831.8 | 828.9 | 825.9 | 821.4 | 816.6 | 809.5 | 799.4 | 784.9
328.15 K, 10000 kPa | 839.1 | 836.9 | 835.8 | 832.9 | 829.9 | 825.5 | 820.6 | 813.9 | 803.9 | 789.6
328.15 K, 15000 kPa | 842.7 | 840.5 | 839.4 | 836.6 | 833.7 | 829.3 | 824.5 | 817.8 | 808 | 793.9
328.15 K, 20000 kPa | 846.3 | 844.1 | 843 | 840.3 | 837.3 | 833 | 828.4 | 821.6 | 811.9 | 798.1
